In patent publication US20140255527A1, “Expression Promoting Agent For Clock Gene And Hyaluronic Acid Synthase Gene” (SHISEIDO COMPANY, LTD., priority 2011, published 2014):

Tests used:
Assay type in all cases: cell-based
Details in all cases: medical agent for stimulation in cultured human dermal fibroblast system; no data shown
Period1 clock gene = assay: Expression amount of Period1 clock gene in cultured human dermal fibroblast (RT-PCR, relative to RPLP0)
Method: (§1) Moreover, as the clock gene, an amount of expression of a Bmal gene (typified by Bmal1) or a Period gene (typified by Period1) in connection with the core system was measured. As a hyaluronic acid synthase gene, an amount of expression of hyaluronic acid synthase gene 2 (HAS2) was measured. […] In experiments described below, a gene expression amount after 16 hours or 2 hours from the stimulation was used as an index, respectively, and an effect on promotion of expression of the Bmal gene, the Period gene and the HAS2 gene being a test substance was evaluated.
(§2) As a cultured human dermal fibroblast, a commercially available normal human dermal fibroblast derived from adult skin (Cell Application, Inc) was purchased, and used for an experiment. Seeding was made in a DMEM culture medium prepared by adding 10% FBS, 20 mM HEPES, Glutamax and an antibacterial agent, and culture was made at 37° C. under 5% CO2. […] From the cell taken therefrom, RNA was extracted using a commercially available RNA extraction kit, and an expression amount of a clock gene (Period1, Bmal1) and a hyaluronic acid synthase gene (HAS2) was measured using a commercially available PCR primer (Perfect Real Time Primer, TAKARA BIO INC.) according to an RT-PCR method. […]

[1] = system: HAS2 hyaluronic acid synthase gene; assay: Expression amount of HAS2 hyaluronic acid synthase gene in cultured human dermal fibroblast (RT-PCR, relative to RPLP0)
Method: as §1, §2

Bmal1 clock gene = assay: Expression amount of Bmal1 clock gene in cultured human dermal fibroblast (RT-PCR, relative to RPLP0)
Method: as §1, §2

SMILES | time of peaked expression amount of Period1 after stimulation (circadian rhythm) (Period1 clock gene) [h] | time of peaked expression amount of HAS2 after stimulation (circadian rhythm) [1] | time of peaked expression amount of Bmal1 after stimulation (circadian rhythm) (Bmal1 clock gene)
C[C@]12CCC(=O)C=C1CC[C@@H]1[C@@H]2[C@@H](O)C[C@@]2(C)[C@H]1CC[C@]2(O)C(=O)CO [cortisol] | 2 | approximately 16 hours | approximately 16 hours
C=C[C@@]1(C)CC(=O)[C@]2(O)[C@@]3(C)[C@@H](O)CCC(C)(C)[C@@H]3[C@H](O)[C@H](OC(C)=O)[C@@]2(C)O1 [forskolin] | 2 | approximately 16 hours | approximately 16 hours
